Measured values: PubChem BioAssay AID743510 (Broad Institute, 2014)
Calls of active or inactive are those of the source.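 The calls were made as follows: active = compounds that block bursicon-driven reporter light with an IC50 below a set limit; inactive = IC50 above that limit.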

Molecular target: Bursicon receptor LGR2 (rickets), Drosophila melanogaster
Assay: LGR2 bursicon receptor antagonists, dose response, cell-based, HEK293, CRE-luciferase, beta-gal normalized, dry powder (AID 743510)
Settings: bursicon-stimulated, antagonist luminescence

Question: `C[C@H](CO)N1C[C@H](C)[C@H](CN(C)C(=O)Nc2ccc(F)cc2)OCCCC[C@H](C)Oc2ccc(NC(=O)C3CC3)cc2C1=O` was tested. Which IC50 did it give?
Answer: Its IC50 is > 35 µM (inactive).

Question: For `C[C@@H]1CCCCO[C@H](CN(C)C(=O)Nc2cccc3ccccc23)[C@@H](C)CN([C@H](C)CO)C(=O)c2cc(NC(=O)C3CCCCC3)ccc2O1`, which IC50 is on record?
Answer: Its IC50 is > 35 µM (inactive).

Question: How did the IC50 turn out when `C[C@@H]1CCCCO[C@@H](CN(C)C(=O)Nc2cccc3ccccc23)[C@H](C)CN([C@H](C)CO)C(=O)c2cc(NC(=O)C3CCCCC3)ccc2O1` was run?
Answer: The IC50 was > 35 µM (inactive).

Question: With `C[C@@H]1CCCCO[C@H](CN(C)C(=O)Nc2cccc3ccccc23)[C@H](C)CN([C@H](C)CO)C(=O)c2cc(NC(=O)C3CCCCC3)ccc2O1` as the compound, how does the IC50 read?
Answer: The IC50 was > 35 µM (inactive).

Question: For `C[C@@H]1CN([C@@H](C)CO)C(=O)c2cc(NC(=O)C3CCCCC3)ccc2O[C@@H](C)CCCCO[C@@H]1CN(C)C(=O)Nc1cccc2ccccc12`, which IC50 is on record?
Answer: Its IC50 is > 35 µM (inactive).

Question: Which IC50 does the source give for `C[C@H](CO)N1C[C@H](C)[C@H](CN(C)C(=O)Nc2ccc(F)cc2)OCCCC[C@H](C)Oc2ccc(NC(=O)C3CCCCCC3)cc2C1=O` here?
Answer: Its IC50 is < 35 µM.

Question: Which IC50 does the source give for `C[C@H](CO)N1C[C@H](C)[C@H](CN(C)C(=O)Nc2ccc(F)cc2)OCCCC[C@H](C)Oc2ccc(NC(=O)C3CCCC3)cc2C1=O` here?
Answer: The IC50 was < 35 µM.

Question: For `C[C@H]1CCCCO[C@@H](CN(C)C(=O)Nc2cccc3ccccc23)[C@@H](C)CN([C@@H](C)CO)C(=O)c2cc(NC(=O)C3CCCCC3)ccc2O1`, which IC50 is on record?
Answer: Its IC50 is < 35 µM.

Question: Which IC50 does the source give for `C[C@@H]1CN([C@@H](C)CO)C(=O)c2cc(NC(=O)C3CCCCC3)ccc2O[C@@H](C)CCCCO[C@H]1CN(C)C(=O)Nc1cccc2ccccc12` here?
Answer: The IC50 was < 35 µM.

Question: Which IC50 does the source give for `C[C@@H]1CCCCO[C@@H](CN(C)C(=O)Nc2cccc3ccccc23)[C@@H](C)CN([C@H](C)CO)C(=O)c2cc(NC(=O)C3CCCCC3)ccc2O1` here?
Answer: Its IC50 is > 35 µM (inactive).

Question: How did the IC50 turn out when `Cc1ccc(NC(=O)N(C)C[C@@H]2OCCCC[C@H](C)Oc3ccc(NC(=O)C4CCCCC4)cc3C(=O)N([C@H](C)CO)C[C@@H]2C)cc1` was run?
Answer: Its IC50 is < 35 µM.

Question: Which IC50 does the source give for `CC(=O)Nc1ccc2c(c1)C(=O)N([C@H](C)CO)C[C@H](C)[C@H](CN(C)C(=O)Nc1ccc(F)cc1)OCCCC[C@H](C)O2` here?
Answer: Its IC50 is > 35 µM (inactive).

Question: How did the IC50 turn out when `C[C@@H]1CCCCO[C@H](CN(C)C(=O)Nc2cccc3ccccc23)[C@H](C)CN([C@@H](C)CO)C(=O)c2cc(NC(=O)C3CCCCC3)ccc2O1` was run?
Answer: Its IC50 is > 35 µM (inactive).

Question: Which IC50 does the source give for `C[C@H](CO)N1C[C@H](C)[C@H](CN(C)C(=O)Nc2ccc(Cl)cc2)OCCCC[C@H](C)Oc2ccc(NC(=O)C3CCCCC3)cc2C1=O` here?
Answer: Its IC50 is < 35 µM.

Question: How did the IC50 turn out when `C[C@H](CO)N1C[C@H](C)[C@H](CN(C)C(=O)Nc2ccc(F)cc2)OCCCC[C@H](C)Oc2ccc(NC(=O)C3CCOCC3)cc2C1=O` was run?
Answer: The IC50 was > 35 µM (inactive).

Question: Which IC50 does the source give for `C[C@H]1CCCCO[C@H](CN(C)C(=O)Nc2cccc3ccccc23)[C@@H](C)CN([C@@H](C)CO)C(=O)c2cc(NC(=O)C3CCCCC3)ccc2O1` here?
Answer: The IC50 was > 35 µM (inactive).

Question: Which IC50 does the source give for `C[C@@H]1CCCCO[C@@H](CN(C)C(=O)Nc2cccc3ccccc23)[C@H](C)CN([C@@H](C)CO)C(=O)c2cc(NC(=O)C3CCCCC3)ccc2O1` here?
Answer: Its IC50 is > 35 µM (inactive).

Question: `C[C@H](CO)N1C[C@H](C)[C@H](CN(C)C(=O)Nc2ccccc2F)OCCCC[C@H](C)Oc2ccc(NC(=O)C3CCCCC3)cc2C1=O` was tested. Which IC50 did it give?
Answer: The IC50 was < 35 µM.

Question: How did the IC50 turn out when `C[C@H](CO)N1C[C@H](C)[C@@H](CN(C)C(=O)Nc2cccc3ccccc23)OCCCC[C@H](C)Oc2ccc(NC(=O)C3CCCCC3)cc2C1=O` was run?
Answer: Its IC50 is > 35 µM (inactive).

Question: How did the IC50 turn out when `C[C@H](CO)N1C[C@H](C)[C@H](CN(C)C(=O)Nc2cccc(F)c2)OCCCC[C@H](C)Oc2ccc(NC(=O)C3CCCCC3)cc2C1=O` was run?
Answer: The IC50 was < 35 µM.

Question: With `C[C@@H]1CN([C@H](C)CO)C(=O)c2cc(NC(=O)C3CCCCC3)ccc2O[C@@H](C)CCCCO[C@H]1CN(C)C(=O)Nc1cccc2ccccc12` as the compound, how does the IC50 read?
Answer: Its IC50 is > 35 µM (inactive).

Question: For `C[C@H](CO)N1C[C@H](C)[C@H](CN(C)C(=O)Nc2cccc3ccccc23)OCCCC[C@H](C)Oc2ccc(NC(=O)C3CCCCC3)cc2C1=O`, which IC50 is on record?
Answer: Its IC50 is < 35 µM.

Question: With `C[C@@H]1CCCCO[C@H](CN(C)C(=O)Nc2cccc3ccccc23)[C@@H](C)CN([C@@H](C)CO)C(=O)c2cc(NC(=O)C3CCCCC3)ccc2O1` as the compound, how does the IC50 read?
Answer: The IC50 was > 35 µM (inactive).

Question: For `C[C@@H]1CN([C@H](C)CO)C(=O)c2cc(NC(=O)C3CCCCC3)ccc2O[C@@H](C)CCCCO[C@@H]1CN(C)C(=O)Nc1cccc2ccccc12`, which IC50 is on record?
Answer: The IC50 was > 35 µM (inactive).

Question: How did the IC50 turn out when `C[C@H](CO)N1C[C@H](C)[C@H](CN(C)C(=O)Nc2ccc3ccccc3c2)OCCCC[C@H](C)Oc2ccc(NC(=O)C3CCCCC3)cc2C1=O` was run?
Answer: Its IC50 is < 35 µM.

Question: With `C[C@@H]1CCCCO[C@@H](CN(C)C(=O)Nc2cccc3ccccc23)[C@@H](C)CN([C@@H](C)CO)C(=O)c2cc(NC(=O)C3CCCCC3)ccc2O1` as the compound, how does the IC50 read?
Answer: Its IC50 is > 35 µM (inactive).
